Read-outs that look alike come from different tables or passages of the source.
What was measured:
[1] = target: T1, human glucocorticoid receptor-α [GRX] isoform (Homo sapiens, UniProt P04150); assay: Radioligand binding with human glucocorticoid receptor cytosol ([3H]-dexamethasone competition)
T1 construct: host or cells: insect SF21 cells (baculovirus)
T1 sequence (P04150 1-777): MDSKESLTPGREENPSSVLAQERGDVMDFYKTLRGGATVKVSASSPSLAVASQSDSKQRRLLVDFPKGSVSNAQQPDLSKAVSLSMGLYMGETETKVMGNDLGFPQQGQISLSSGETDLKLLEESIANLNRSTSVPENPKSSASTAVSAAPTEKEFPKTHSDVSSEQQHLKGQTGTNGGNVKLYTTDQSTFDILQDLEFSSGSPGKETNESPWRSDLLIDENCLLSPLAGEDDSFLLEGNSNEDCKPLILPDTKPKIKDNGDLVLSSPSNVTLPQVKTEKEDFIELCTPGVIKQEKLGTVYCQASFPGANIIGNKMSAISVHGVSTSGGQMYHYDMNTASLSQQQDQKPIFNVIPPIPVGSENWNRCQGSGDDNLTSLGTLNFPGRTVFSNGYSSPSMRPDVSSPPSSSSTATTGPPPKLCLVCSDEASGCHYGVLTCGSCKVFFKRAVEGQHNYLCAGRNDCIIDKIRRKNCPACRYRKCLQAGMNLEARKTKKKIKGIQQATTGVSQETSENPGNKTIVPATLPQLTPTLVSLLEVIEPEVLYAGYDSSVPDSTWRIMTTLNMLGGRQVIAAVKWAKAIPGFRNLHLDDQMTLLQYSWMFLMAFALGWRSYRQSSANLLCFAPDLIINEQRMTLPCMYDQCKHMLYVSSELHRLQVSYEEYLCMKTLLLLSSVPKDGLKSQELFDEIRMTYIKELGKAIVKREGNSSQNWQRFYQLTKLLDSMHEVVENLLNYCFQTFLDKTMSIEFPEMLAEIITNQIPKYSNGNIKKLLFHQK
From the text: Briefly, cytosol preparations of human glucocorticoid receptor-α [GRX] isoform and human progesterone receptor-A [PRA] isoform were obtained from Ligand Pharmaceuticals (San Diego, Calif.). Both receptor cDNAs were cloned into baculovirus expression vectors and expressed in insect SF21 cells. [^3H]-dexamethasone (Dex, specific activity 82-86 Ci/mmole) and [^3H]-progesterone (Prog, specific activity 97-102 Ci/mmol) were purchased from Amersham Life Sciences (Arlington Heights, Ill.). Glass fiber type C multiscreen MAFC NOB plates were from Millipore (Burlington, Mass.). Hydroxyapatide Bio-Gel HTP gel was from Bio-Rad Laboratories (Hercules, Calif.). Tris(hydroxymethyl)aminomethane (Tris), ethylenediaminetetraacetic acid (EDTA), glycerol, dithiothreitol (DTT) and sodium moylybdate were obtained from Sigma Chemicals (St. Louis, Mo.). Microscint-20 scintillation fluid was from Packard Instrument (Meriden, Conn.).
Stock solutions (32 mM) of compounds were prepared in dimethylsulfoxide (DMSO), and 50× solutions of test compounds were prepared from the 32 mM solution with a 50:50 mixture of DMSO/ethanol. The 50× solution was then diluted with binding buffer that contained 10 mM Tri-HCl, 1.5 mM EDTA, 10% glycerol, 1 mM DTT, 20 mM sodium molybdate, pH 7.5 @4° C. 1% DMSO/ethanol was present in the binding assay.
For GR binding assays, [^3H]-Dex (˜35,000 dpm (˜0.9 nM)), GRX cytosol (˜35 μg protein), test compounds and binding buffer were mixed in a total volume of 200 μL and incubated at 4° C. overnight in a plate shaker. Specific binding was defined as the difference between binding of [^3H]Dex in the absence and in the presence of 1 μM unlabelled Dex.
After an overnight incubation, 50 μL of hydroxyapatite (25% weight/volume) slurry were added to each well and plates were incubated for 10 min at 0° C. in a plate shaker. Plates were suctioned with a Millipore vacuum manifold and each well was rinsed with 300 μL of ice-cold binding buffer. A 250 μL aliquot of Packard Microscint-20 was added to each well and the wells were shaken at room temperature for 20 minutes. The amount of radioactivity was determined with a Packard TopCount plate reader.
The Ki of test compounds was determined using the Cheng-Prusoff equation Ki=IC50/(1+[L*]/[KL]) where L* is the concentration of radioligand and KL is the dissociation constant of the radioligand determined from saturation analysis.

[2] = target: T2, human progesterone receptor-A [PRA] isoform (Homo sapiens, UniProt P06401); assay: Radioligand binding with human progesterone receptor cytosol ([3H]-progesterone competition); conditions: PRA cytosol expressed in insect SF21 cells, [3H]Prog ~0.8 nM, 4° C. overnight; Ki by Cheng-Prusoff, KL ~4.5 nM; read-out: Ki (nM) PR
T2 construct: host or cells: insect SF21 cells (baculovirus)
T2 sequence (P06401 1-769 isoform P06401-2): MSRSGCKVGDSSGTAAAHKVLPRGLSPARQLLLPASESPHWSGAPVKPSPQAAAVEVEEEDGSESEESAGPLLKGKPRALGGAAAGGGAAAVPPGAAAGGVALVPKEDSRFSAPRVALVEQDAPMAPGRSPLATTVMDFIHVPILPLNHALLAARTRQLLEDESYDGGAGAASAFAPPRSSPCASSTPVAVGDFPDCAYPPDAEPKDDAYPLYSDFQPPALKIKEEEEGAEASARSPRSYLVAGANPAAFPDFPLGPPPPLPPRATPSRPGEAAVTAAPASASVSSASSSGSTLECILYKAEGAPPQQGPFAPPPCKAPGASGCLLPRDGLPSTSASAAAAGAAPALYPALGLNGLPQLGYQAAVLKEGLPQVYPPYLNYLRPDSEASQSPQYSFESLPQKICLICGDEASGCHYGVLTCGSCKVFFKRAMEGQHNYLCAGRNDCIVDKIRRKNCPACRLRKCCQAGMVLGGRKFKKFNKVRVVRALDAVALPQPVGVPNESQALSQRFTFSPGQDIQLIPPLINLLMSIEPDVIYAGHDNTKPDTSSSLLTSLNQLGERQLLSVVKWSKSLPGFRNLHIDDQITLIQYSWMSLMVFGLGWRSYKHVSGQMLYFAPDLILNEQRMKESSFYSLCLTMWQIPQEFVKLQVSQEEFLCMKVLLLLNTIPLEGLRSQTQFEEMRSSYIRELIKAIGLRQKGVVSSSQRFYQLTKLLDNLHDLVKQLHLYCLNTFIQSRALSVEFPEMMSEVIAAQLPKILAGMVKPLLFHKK

[3] = GRX cytosol expressed in insect SF21 cells, [3H]-Dex ~0.9 nM, 4° C. overnight, Ki by Cheng-Prusoff, KL ~[…], read-out: Ki (nM) GR

Row | SMILES | Ki [1, 3] [nM] | Ki [2] [nM] | Ki ([1]; read-out: Ki (nM) GR) [nM] | Ki ([1]; Ki (nM) GR) [nM]
1 | COc1cccc2c1-c1ccc3c(c1[C@@H]([C@H]1C=C(CN(C)S(C)(=O)=O)CCC1)O2)C(C)=CC(C)(C)N3 (relative stereo) [Example 168, rel (5R, 3′R) 2,5-Dihydro-10-methoxy-5-(1-(N-methyl-N-methylsulfonylamino)methyl-3-cyclohexenyl)-2,2,4-trimethy-1H-[1]benzopyrano[3,4-f]quinoline] | 2.5 | ≥ 10000 | – | –
2 | CNC(=O)OC/C=C/CC1Oc2cccc(OC)c2-c2ccc3c(c21)C(C)=CC(C)(C)N3 (stereo not drawn) [Example 197, (E) 2,5-Dihydro-10-methoxy-5-(4-(N-methylaminocarbonyloxy)-2-buten-1-yl)-2,2,4-trimethyl-1H-[1]benzopyrano[3,4-f]quinoline] | 28 | ≥ 10000 | – | –
3 | CC1=C[C@@H]([C@H]2Oc3ccc(O)c(Cl)c3-c3ccc4c(c32)C(C)=CC(C)(C)N4)CCC1 [Example 419, (+)(5R,3′S)2,5-Dihydro-9-hydroxy-10-chloro-2,2,4-trimethyl-5-(1-methylcyclohexen-3-yl)-1H-[1]benzopyrano[3,4-f]quinoline] | 56.9 | 286 | – | –
4 | C=CCC1Oc2ccc(OCC)c(OC)c2-c2ccc3c(c21)C(C)=CC(C)(C)N3 (stereo not drawn) [Example 292, 10-Methoxy-9-ethoxy-5-(3-propenyl)-2,2,4-trimethyl-1H-2,5-dihydro-[1]benzopyrano[3,4-f]quinoline] | 487 | 8340 | – | –
5 | CC1=CC(C)(C)Nc2ccc3c(c21)[C@@H]([C@@H]1C=CCC1)Oc1ccc(O)c(Cl)c1-3 [Example 224] | 57 | 786 | – | –
6 | COc1cccc2c1-c1ccc3c(c1C(=Cc1cc(Cl)cc(Cl)c1)O2)C(C)=CC(C)(C)N3 [Example 120, 5-[(3,5-dichlorphenyl)methylen]-2,5-dihydro-10-methoxy-2,2,4-trimethyl-1H-[1]benzopyrano[3,4-f]puinoline] | 30.3 | 6240 | – | –
7 | COc1cccc2c1-c1ccc3c(c1C(c1cc(C)cc(N4CCOCC4)c1)O2)C(C)=CC(C)(C)N3 (stereo not drawn) [Example 17, 2,5-Dihydro-10-methoxy-2,2,4-trimethyl-5-[3-methyl-5-(1-morpholinyl)phenyl]-1H-[1]benzopyrano[3,4-f]quinoline] | 39 | ≥ 10000 | – | –
8 | C=CCC1Oc2ccc(O)c(Cl)c2-c2ccc3c(c21)C(C)=CC(C)(C)N3 (stereo not drawn) [Example 216, 10-Chloro-9-hydroxy-5-(3-propenyl)-2,2,4-trimethyl-1H-2,5-dihydro-[1]benzopyrano[3,4-f]quinoline] | – | 7.6 | 0.58 | –
9 | C=C1CCCCC1C1Oc2cccc(OC)c2-c2ccc3c(c21)C(C)=CC(C)(C)N3 (mixture of isomers) [Example 141, 2,5-Dihydro-10-methoxy-5-(1-methylene-2-cyclohexyl)-2,2,4-trimethyl-1H-[1]benzopyrano[3,4-f]quinoline] | – | ≥ 10000 | – | 10
10 | COc1cccc2c1-c1ccc3c(c1C(/C=C/CO)O2)C(C)=CC(C)(C)N3 (stereo not drawn) [Example 181, (E) 2,5-Dihydro-10-methoxy-5-(3-hydroxy-1-propenyl)-2,2,4-trimethyl-1H-[1]benzopyrano[3,4-f]quinoline] | 207 | ≥ 10000 | – | –
11 | COCC1=C[C@H]([C@@H]2Oc3ccc(O)c(OC)c3-c3ccc4c(c32)C(C)=CC(C)(C)N4)CCC1 (relative stereo) [Example 244, rel-(5S,3′R)-9-Hydroxy-5-[1-methoxymethyl-3-cyclohexenyl]-10-methoxy-2,2,4-trimethyl-2,5-dihydro-1H-[1]benzopyrano[3,4-f]quinoline] | 6.3 | 804 | – | –
12 | C=CCC1Oc2ccc(OC(=S)N(C)C)c(OC)c2-c2ccc3c(c21)C(C)=CC(C)(C)N3 (stereo not drawn) [Example 431, 9-(Dimethylaminothiocarbonyl)-oxy-10-methoxy-5-(3-propenyl)-2,2,4-trimethyl-1H-2,5-dihydro-[1]benzopyrano[3,4-f]quinoline] | 113 | ≥ 10000 | – | –

Reference: patent US6506766B1 (Abbott Laboratories, priority 1998, dated 2003)
